Read-outs that look alike come from different tables or passages of the source.
Assays:
[1] = target: T1, CFTR in F508del/MF-HBE cells (Homo sapiens, UniProt P13569, DEL508-508); assay: Ussing chamber assay of CFTR-mediated short-circuit currents (identification of potentiator compounds); type: cell-based; conditions: potentiator incubated 18-24 hours at 37° C. in combination with 10 μM corrector, in the presence of 20% human serum, CFTR-mediated ISC
T1 construct: human bronchial epithelial (HBE) cells derived from CF subjects heterozygous for F508del and a minimal function CFTR mutation; endogenous in cells; host or cells: primary human bronchial epithelial cells from CF subjects (F508del/MF-HBE)
T1 sequence (P13569 with tags, fused parts or gaps DEL508-508): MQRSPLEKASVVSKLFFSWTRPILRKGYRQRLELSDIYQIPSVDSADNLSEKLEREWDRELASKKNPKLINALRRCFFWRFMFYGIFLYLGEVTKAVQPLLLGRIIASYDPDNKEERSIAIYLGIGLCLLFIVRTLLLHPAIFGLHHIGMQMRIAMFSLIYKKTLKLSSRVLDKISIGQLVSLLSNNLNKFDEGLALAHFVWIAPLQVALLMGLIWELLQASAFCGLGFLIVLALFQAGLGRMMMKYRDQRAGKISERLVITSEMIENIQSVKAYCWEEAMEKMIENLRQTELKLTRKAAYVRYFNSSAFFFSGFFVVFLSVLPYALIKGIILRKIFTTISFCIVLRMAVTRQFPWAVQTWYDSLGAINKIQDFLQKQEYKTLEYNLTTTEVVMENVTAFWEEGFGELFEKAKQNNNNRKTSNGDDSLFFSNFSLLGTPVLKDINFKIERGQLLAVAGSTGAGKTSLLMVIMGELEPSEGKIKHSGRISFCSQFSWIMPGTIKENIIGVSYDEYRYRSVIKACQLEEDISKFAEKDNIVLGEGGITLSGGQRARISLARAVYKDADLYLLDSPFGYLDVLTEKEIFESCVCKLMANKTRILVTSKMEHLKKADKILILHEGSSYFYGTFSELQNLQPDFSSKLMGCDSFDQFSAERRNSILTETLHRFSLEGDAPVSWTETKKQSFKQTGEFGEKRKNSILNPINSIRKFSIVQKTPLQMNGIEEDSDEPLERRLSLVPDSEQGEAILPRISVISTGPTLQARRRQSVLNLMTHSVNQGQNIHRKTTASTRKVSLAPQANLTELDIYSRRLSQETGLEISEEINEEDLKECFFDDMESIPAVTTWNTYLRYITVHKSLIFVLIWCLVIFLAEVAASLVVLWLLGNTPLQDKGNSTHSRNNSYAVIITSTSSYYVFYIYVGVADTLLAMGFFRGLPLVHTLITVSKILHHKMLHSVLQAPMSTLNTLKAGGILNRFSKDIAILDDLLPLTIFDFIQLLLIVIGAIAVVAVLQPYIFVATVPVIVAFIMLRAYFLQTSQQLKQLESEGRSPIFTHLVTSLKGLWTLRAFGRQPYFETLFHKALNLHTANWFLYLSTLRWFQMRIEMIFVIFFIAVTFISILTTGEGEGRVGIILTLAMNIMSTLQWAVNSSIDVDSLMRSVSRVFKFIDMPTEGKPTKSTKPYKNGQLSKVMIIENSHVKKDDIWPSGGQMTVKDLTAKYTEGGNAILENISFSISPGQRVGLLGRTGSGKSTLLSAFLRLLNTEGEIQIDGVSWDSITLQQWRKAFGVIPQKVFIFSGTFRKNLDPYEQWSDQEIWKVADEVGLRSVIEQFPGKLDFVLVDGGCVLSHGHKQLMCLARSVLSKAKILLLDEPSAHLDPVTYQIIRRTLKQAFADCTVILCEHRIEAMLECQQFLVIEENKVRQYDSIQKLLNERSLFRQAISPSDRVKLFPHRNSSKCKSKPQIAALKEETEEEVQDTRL
Procedure, shortened: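 F508del/MF-HBE cultures were preincubated 18-24 h at 37° C with potentiator plus 10 μM of a fixed corrector compound in 20% human serum; compounds were kept present during measurement. ISC was recorded under voltage clamp (0 mV, 37° C, amiloride apical) and taken as the 20 μM forskolin peak minus the current after inhibitor cocktail.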

Work on `CC(C)(C)OC(=O)Nc1cc(C(F)(F)F)c2nc1-c1nnc(o1)C(OCc1ccccc1)(C(F)(F)F)CCCCN(C1CC(F)(F)C1)C2=O` (stereo not drawn) yielded a ring closure, isolated yield (from CC(C)(C)OC(=O)Nc1cc(C(F)(F)F)c(C(=O)O)nc1-c1nnc(C(CCCCNC2CC(F)(F)C2)(OCc2ccccc2)C(F)(F)F)o1, amide bond, 13-membered ring, HATU/DIEA, DMF, 2.67 mM, 1.0 h) of 33%.

Compound `CC(C)N1CCCCC(OCc2ccccc2)(C(F)(F)F)C2=NN=C(O2)c2nc(c(C(F)(F)F)cc2N)CC1=O` (stereo not drawn) has a ring closure, isolated yield (from CC(C)NCCCCC(OCc1ccccc1)(c1nnc(-c2nc(CC(=O)O)c(C(F)(F)F)cc2N)o1)C(F)(F)F, amide bond, 14-membered ring, T3P/DIEA, EtOAc/NMP, 33.9 mM, 2.0 h) of 23%.

For `CN1CCCCC(OCc2ccccc2)(C(F)(F)F)C2=NN=C(O2)c2nc(c(C(F)(F)F)cc2N)CC1=O` (stereo not drawn), the ring closure, isolated yield (from CNCCCCC(OCc1ccccc1)(c1nnc(-c2nc(CC(=O)O)c(C(F)(F)F)cc2N)o1)C(F)(F)F, amide bond, 14-membered ring, T3P/DIEA, EtOAc/NMP, 35.7 mM, 5.0 h) was 45%.

With `Nc1cc(C(F)(F)F)c2nc1-c1nnc(o1)C(OCc1ccccc1)(C(F)(F)F)CCCCN(Cc1ccccc1)C(=O)C2` (stereo not drawn) the ring closure, isolated yield (from Nc1cc(C(F)(F)F)c(CC(=O)O)nc1-c1nnc(C(CCCCNCc2ccccc2)(OCc2ccccc2)C(F)(F)F)o1, amide bond, 14-membered ring, T3P/DIEA, EtOAc/NMP, 31.5 mM, 2.0 h) was 66%.

With `CC(C)(C)OC(=O)Nc1cc(C(F)(F)F)c2nc1-c1nnc(o1)C(O)(C(F)(F)F)c1cccc(c1)C=CCCC2C#N` (mixture of isomers) the ring closure, isolated yield (from C=CCCC(C#N)c1nc(-c2nnc(C(O)(c3cccc(I)c3)C(F)(F)F)o2)c(NC(=O)OC(C)(C)C)cc1C(F)(F)F, cc_pd bond, 15-membered ring, Pd(OAc)2/P(o-tol)3/Et3N, MeCN, 9.4 mM, 80.0 °C) was 93%.

Work on `CC(C)(C)OC(=O)Nc1cc(C(F)(F)F)c2nc1-c1nnc(o1)C(OCc1ccccc1)(C(F)(F)F)CCC=CCCC2` (mixture of isomers) yielded a ring closure, isolated yield (from C=CCCCc1nc(-c2nnc(C(CCC=C)(OCc3ccccc3)C(F)(F)F)o2)c(NC(=O)OC(C)(C)C)cc1C(F)(F)F, rcm bond, 14-membered ring, Grubbs II (22 mol%), toluene, 2.63 mM, 100.0 °C) of 39%.

With `COC1CCC=Cc2ccc(F)c(c2)C(O)(C(F)(F)F)C2=NN=C(O2)c2nc1c(C(F)(F)F)cc2NC(=O)OC(C)(C)C` (mixture of isomers) the ring closure, isolated yield (from C=CCCC(OC)c1nc(-c2nnc(C(O)(c3cc(I)ccc3F)C(F)(F)F)o2)c(NC(=O)OC(C)(C)C)cc1C(F)(F)F, cc_pd bond, 15-membered ring, Pd(OAc)2/P(o-tol)3/Et3N, MeCN, 6.3 mM, 80.0 °C, 16.0 h) was 62%.

`Nc1cc(C(F)(F)F)c2nc1-c1nnc(o1)[C@@](O)(C(F)(F)F)CCCCCN(Cc1cc(C3CCC3)ccc1F)C2=O` [Compound 260, (6R)-17-amino-12-[(5-cyclobutyl-2-fluoro-phenyl)methyl]-6-hydroxy-6,15-bis(trifluoromethyl)-19-oxa-3,4,12,18-tetrazatricyclo [12.3.1.12,5] nonadeca-1(18),2,4,14,16-pentaen-13-one] showed an EC50 [1] of less than 500 nM.

Compound `Nc1cc(C(F)(F)F)c2nc1-c1nnc(o1)[C@@](O)(C(F)(F)F)CCCCCN(Cc1ccc(OC(F)(F)F)c(F)c1)C2=O` [Compound 265, (6R)-17-amino-12-[[3-fluoro-4-(trifluoromethoxy)phenyl]methyl]-6-hydroxy-6,15-bis(trifluoromethyl)-19-oxa-3,4,12,18-tetrazatricyclo [12.3.1.12,5] nonadeca-1(18),2,4,14,16-pentaen-13-one] has an EC50 [1] of less than 500 nM.

Compound `Nc1cc(C(F)(F)F)c2nc1-c1nnc(o1)[C@@](O)(C(F)(F)F)CCCCCN(Cc1ccc(OC(F)F)cc1)C2=O` [Compound 266, (6R)-17-amino-12-[[4-(difluoromethoxy)phenyl]methyl]-6-hydroxy-6,15-bis(trifluoromethyl)-19-oxa-3,4,12,18-tetrazatricyclo [12.3.1.12,5] nonadeca-1(18),2,4,14,16-pentaen-13-one] has an EC50 [1] of less than 500 nM.

`Nc1cc(C(F)(F)F)c2nc1-c1nnc(o1)[C@@](O)(C(F)(F)F)CCCCCN(Cc1ccc(OC(F)F)c(F)c1)C2=O` [Compound 267, (6R)-17-amino-12-[[4-(difluoromethoxy)-3-fluoro-phenyl]methyl]-6-hydroxy-6,15-bis(trifluoromethyl)-19-oxa-3,4,12,18-tetrazatricyclo [12.3.1.12,5] nonadeca-1(18),2,4,14,16-pentaen-13-one] showed an EC50 [1] of less than 500 nM.

With `Nc1cc(C(F)(F)F)c2nc1-c1nnc(o1)[C@@](O)(C(F)(F)F)CCCCCN(Cc1ccc(OC(F)F)nc1)C2=O` [Compound 268, (6R)-17-amino-12-[[6-(difluoromethoxy)-3-pyridyl]methyl]-6-hydroxy-6,15-bis(trifluoromethyl)-19-oxa-3,4,12,18-tetrazatricyclo [12.3.1.12,5] nonadeca-1(18),2,4,14,16-pentaen-13-one] the EC50 [1] was less than 500 nM.

Compound `Nc1cc(C(F)(F)F)c2nc1-c1nnc(o1)[C@@](O)(C(F)(F)F)CCCCCN(Cc1ccnc(OC(F)F)c1)C2=O` [Compound 269, (6R)-17-amino-12-[[2-(difluoromethoxy)-4-pyridyl]methyl]-6-hydroxy-6,15-bis(trifluoromethyl)-19-oxa-3,4,12,18-tetrazatricyclo [12.3.1.12,5] nonadeca-1(18),2,4,14,16-pentaen-13-one] has an EC50 [1] greater than 1000 nM.

In the case of `Nc1cc(C(F)(F)F)c2nc1-c1nnc(o1)[C@@](O)(C(F)(F)F)CCCCCN(Cc1ccnc(OC3CCC3)c1)C2=O` [Compound 270, (6R)-17-amino-12-[[2-(cyclobutoxy)-4-pyridyl]methyl]-6-hydroxy-6,15-bis(trifluoromethyl)-19-oxa-3,4,12,18-tetrazatricyclo [12.3.1.12,5] nonadeca-1(18),2,4,14,16-pentaen-13-one], the EC50 [1] is reported as less than 500 nM.

Compound `N#Cc1cccc(CN2CCCCC[C@](O)(C(F)(F)F)C3=NN=C(O3)c3nc(c(C(F)(F)F)cc3N)C2=O)c1` [Compound 271, 3-[[(6R)-17-amino-6-hydroxy-13-oxo-6,15-bis(trifluoromethyl)-19-oxa-3,4,12,18-tetrazatricyclo[12.3.1.12,5]nonadeca-1(18),2,4,14,16-pentaen-12-yl]methyl]benzonitrile] has an EC50 [1] of less than 500 nM.
